Where “and” joins values, the source holds several entries; their conditions need not be identical. Equal values may be shown once. Entries after “also recorded” stand apart in the source; their conditions may differ. Read-outs that look alike come from different tables or passages of the source. Where a SMILES comes first, the peptide text is derived from it. [ ]: non-standard residue; d: D form. The star is where a group is joined. Nle = CCCC[C@H](N)C(=O)O; Cbz = O=C(OCc1ccccc1)*; CH2F = FC*
Tests used:
nsp5 [1] = target: T1, nsp5 (Severe acute respiratory syndrome coronavirus 2, UniProt P0DTD1); test: biochemical; format: biochemical; details: for inhibition of nsp5 in FRET-based assay: drug concentrations 0 to 500 µM; for inhibition of nsp5 in presence of reducing agent: DTT or GSH; for inhibition of nsp5 in absence of reducing agent: no reducing agent
nsp5 [2] = target: T1, nsp5; test: Gel based nsp9 cleavage assay; format: biochemical; details: 1 µM nsp5, drug 10-500 µM
rhesus macaques = system: rhesus macaques; parameters: method as in PMID 29553486; details: trials investigating AIDS disease progression; cited from earlier work
SARS-CoV-2 = test: viral infectivity assay in Vero E6 cells; format: cell-based; details: for EC50: read-out: EC50 viral infection
mice = details: cited from earlier work
thrombin = thrombin (Homo sapiens, UniProt P00734); test: thrombin FRET protease assay (specificity); format: biochemical; details: for inhibition of thrombin activity (words): same buffer as in the HTS
Excerpt: Calpain Inhibitor I and Z-DEVD-FMK were described recently as nsp5 inhibitors in vitro [21, 25]. To test the specificity of the final five drugs we tested them against a different protease, thrombin. We used the same buffer as in the HTS, which contained a non-ionic detergent, which reduces the likelihood of unspecific inhibition via colloidal aggregation. […] Lastly, we tested whether these compounds could inhibit the other viral coronavirus protease (nsp3 PLpro), which is also a cysteine protease. The substrate and assay conditions used in this experiment as well as example inhibitor compounds of PLpro are described elsewhere (see [28]).
The peptides were analysed by LC–MS on an Agilent 1100 LC-MSD.

[3] = FRET-based assay, 10 nM nsp5, 20 µM substrate, 2 mM DTT, mean ± SEM, read-out: IC50
[4] = Severe acute respiratory syndrome coronavirus 2, Vero C1008, Vero E6 cells, MOI 0.5 PFU/cell, mean ± SEM

## CN1CCN(c2c(F)cc3c(=O)c(C(=O)O)cn4c3c2OCN4C)CC1 [Marbofloxacin]
nsp5 [1]
  inhibition of nsp5 in FRET-based assay: Did not inhibit

## Br.CCCc1cc(-c2nc(-c3ccc(C)cc3)cs2)ccn1 [Fatostatin HBr]
nsp5 [2]
  inhibition of nsp5 in nsp9 gel-based cleavage assay (words): Did not inhibit; also recorded: did not show inhibition at any of the drug concentrations
nsp5 [1]; [3]
  IC50: 64900 nM
nsp5 [1]; FRET-based assay, mean ± SEM
  Hill coefficient (nH): -0.3 ± 0.08
nsp5 [1]
  inhibition of nsp5 in FRET-based assay: showed some inhibition of nsp5

## CCOc1ccc(Cc2cc([C@@H]3O[C@H](SC)[C@@H](O)[C@H](O)[C@H]3O)ccc2Cl)cc1 [Sotagliflozin (LX4211), Sotagliflozin]
nsp5 [1]
  inhibition of nsp5 in FRET-based assay: Did not inhibit

## Q-DEVD-OPh
nsp5 [2]
  inhibition of nsp5 in nsp9 gel-based cleavage assay (words): only displayed inhibition at the highest concentration of drug tested

## O=c1c2ccccc2[se]n1-c1ccccc1 [Ebselen]
nsp5 [1]; FRET-based assay
  inhibition of nsp5 in presence of reducing agent: only a slight reduction in nsp5 activity
  inhibition of nsp5 in absence of reducing agent: inhibited nsp5 only in the absence of a reducing agent

## PDK1/Akt/Flt Dual Pathway Inhibitor
nsp5 [2]
  inhibition of nsp5 in nsp9 gel-based cleavage assay (words): Did not inhibit
nsp5 [2]; listed as PDK1/Akt/Flt Dual pathway
  inhibition of nsp5 in nsp9 gel-based cleavage assay (words): did not show inhibition at any of the drug concentrations
nsp5 [1]; [3]
  IC50: 26300 nM
nsp5 [1]; FRET-based assay, mean ± SEM
  Hill coefficient (nH): -0.3 ± 0.02
nsp5 [1]
  inhibition of nsp5 in FRET-based assay: showed some inhibition of nsp5

## CC(C)[C@H](NC(=O)c1ccc2ccccc2n1)C(=O)N[C@@H](CC(=O)O)C(=O)COc1c(F)cccc1F [Q-VD-OPh]
Rhesus macaques
  toxic side effects in rhesus macaques: no toxic side effects
nsp5 [2]
  inhibition of nsp5 in nsp9 gel-based cleavage assay (words): did not inhibit nsp5 activity

## CCCC[C@@H](C=O)NC(=O)[C@H](CC(C)C)NC(=O)[C@H](CC(C)C)NC(C)=O [Calpain Inhibitor I, (2S)-2-(acetylamino)-N-[(1S)-1-({[(1S)-1-formylpentyl]amino}carbonyl)-3-methylbutyl]-4-methylpentanamide] (Ac-Leu-Leu-[Nle]-aldehyde)
nsp5 [2]
  inhibition of nsp5 in nsp9 gel-based cleavage assay (words): inhibited nsp5
SARS-CoV-2; [4]
  EC50: 280 ± 10 nM
nsp5 [1]; [3]
  IC50: 5170 ± 170 nM
nsp5 [1]; FRET-based assay
  inhibition of nsp5 in presence of reducing agent: inhibited nsp5 in the absence of reducing agent as well as the presence of either reducing agent
  inhibition of nsp5 in absence of reducing agent: inhibited nsp5 in the absence of reducing agent
nsp5 [1]; FRET-based assay, Reducing agent: DTT, read-out: IC50
  IC50: 2800 ± 200 nM
nsp5 [1]; FRET-based assay, Reducing agent: GSH, read-out: IC50
  IC50: 2300 ± 200 nM
nsp5 [1]; FRET-based assay, Reducing agent: None, read-out: IC50
  IC50: 2400 ± 100 nM
nsp5 [1]; FRET-based assay, mean ± SEM
  Hill coefficient (nH): -2.0 ± 0.1
mice
  toxic effects in mice: without obvious toxic effects

## COc1cc2ncc(-c3ccccc3)nc2cc1OC [Tyrphostin AG 1296]
nsp5 [2]
  inhibition of nsp5 in nsp9 gel-based cleavage assay (words): did not inhibit in either validation step
nsp5 [1]
  inhibition of nsp5 in FRET-based assay: did not inhibit in either validation step

## CCNC(=O)[C@H]1O[C@@H](n2cnc3c(N)ncnc32)[C@H](O)[C@@H]1O [5'-N-Ethulcarbomaxidoadenosine]
nsp5 [1]
  inhibition of nsp5 in FRET-based assay: Did not inhibit

## COC(=O)CCC(NC(=O)C(CC(=O)OC)NC(=O)OCc1ccccc1)C(=O)NC(C(=O)NC(CC(=O)OC)C(=O)CF)C(C)C (stereo not shown) [Z-DEVD-FMK]
nsp5 [2]
  inhibition of nsp5 in nsp9 gel-based cleavage assay (words): inhibited nsp5
nsp5 [1]
  IC50: 230 ± 30 nM
nsp5 [1]; FRET-based assay, mean ± SEM
  Hill coefficient (nH): -0.7 ± 0.05

## COC(=O)CC(NC(=O)C(CC(C)C)NC(=O)C(NC(=O)C(C)NC(=O)OCc1ccccc1)C(C)C)C(=O)CF (stereo not shown) [Z-AVLD-FMK] (Cbz-AVLD(OMe)-CH2F; configuration not given here)
SARS-CoV-2; Severe acute respiratory syndrome coronavirus 2, Vero C1008
  EC50: 66000 ± 7280 nM
SARS-CoV-2; Vero E6 cells
  increase in inhibitor potency (EC50) compared with Z-VAD-FMK: 2 fold
SARS-CoV-2
  EC50: 66000 ± 7300 nM
nsp5 [1]; FRET-based assay, custom FMK peptides, mean ± SEM, read-out: IC50
  IC50: < 1 nM and 0.8 nM

## COC(=O)CC(NC(=O)C(C)NC(=O)C(NC(=O)OCc1ccccc1)C(C)C)C(=O)CF (stereo not drawn) [Z-VAD-FMK, Z-VAD(OMe)-FMK] (Cbz-Val-Ala-Asp(OMe)-CH2F; configuration not given here)
nsp5 [2]
  inhibition of nsp5 in nsp9 gel-based cleavage assay (words): inhibited nsp5
SARS-CoV-2; [4]
  EC50: 138000 ± 19000 nM
SARS-CoV-2; Vero E6 cells
  concentrations at which inhibition of viral infection was displayed: greater than 100 µM
nsp5 [1]
  IC50: 160 ± 10 nM
nsp5 [1]; FRET-based assay, mean ± SEM
  Hill coefficient (nH): -1.5 ± 0.07

## COC(=O)CC(NC(=O)C(CC(C)C)NC(=O)C(NC(=O)C(C)NC(=O)C(CO)NC(=O)OCc1ccccc1)C(C)C)C(=O)CF (stereo not shown) [Z-SAVLD-FMK] (Cbz-SAVLD(OMe)-CH2F; configuration not given here)
nsp5 [1]; [3]
  IC50: 20 ± 1 nM

## COC(=O)CC(NC(=O)C(CC(C)C)NC(=O)C(NC(=O)C(C)NC(=O)C(CO)NC(=O)C(C)NC(=O)OCc1ccccc1)C(C)C)C(=O)CF (stereo not shown) [Z-ASAVLD-FMK] (Cbz-ASAVLD(OMe)-CH2F; configuration not given here)
nsp5 [1]; [3]
  IC50: 260 ± 20 nM

## Cc1ccccc1N=Nc1ccc(NC(=O)c2ccnn2C)c(C)c1 [CH-223191]
nsp5 [1]
  inhibition of nsp5 in FRET-based assay: Did not inhibit

## Q-IETD-OPh
nsp5 [2]
  inhibition of nsp5 in nsp9 gel-based cleavage assay (words): showed the best nsp5 inhibition

## O=C1O/C(=C/Br)CCC1c1cccc2ccccc12 (stereo not shown) [Bromoenol lactone]
thrombin; HTS buffer, thrombin FRET substrate, mean ± SEM
  Inhibition of thrombin: nH: -2.8 ± 0.8
thrombin; HTS buffer, thrombin FRET substrate, mean ± SEM, read-out: Inhibition of thrombin: IC50
  IC50: 400 ± 600 nM
thrombin
  inhibition of thrombin activity (words): I nhibited thrombin
thrombin; listed as bromoenol lactone
  inhibition of thrombin activity (words): inhibited thrombin activity
nsp5 [2]
  inhibition of nsp5 in nsp9 gel-based cleavage assay (words): inhibited nsp5
nsp5 [1]
  IC50: 3400 nM
nsp5 [1]; FRET-based assay, mean ± SEM
  Hill coefficient (nH): -2.6 ± 0.15

## CCC(C)C(NC(=O)OCc1ccccc1)C(=O)NC(CCC(=O)OC)C(=O)NC(C(=O)NC(CC(=O)OC)C(=O)CF)C(C)O (stereo not shown) [Z-IETD-FMK] (Cbz-IE(OMe)TD(OMe)-CH2F; configuration not given here)
nsp5 [2]
  inhibition of nsp5 in nsp9 gel-based cleavage assay (words): inhibited nsp5
nsp5 [1]; [3]
  IC50: 230 ± 10 nM
nsp5 [1]; FRET-based assay, mean ± SEM
  Hill coefficient (nH): -1.4 ± 0.08

From publication PMC8286836, “Identifying SARS-CoV-2 antiviral compounds by screening for small molecule inhibitors of Nsp5 main protease” (Biochemical Journal, 2021)
